Structures are written as SMILES.

The nature of this data set: gradient 5% acetonitrile 3 min, to 50% in 2 min, to 85% in 15 min, held 3 min, 100 µL/min. As to conditions: column: Zorbax Extend-C18 2.1 x 50 mm; eluents: water / acetonitrile, 0.1% formic acid. The gist of the method:
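The system's dead and dwell volumes were 40 μL and 900 μL, with a Zorbax Extend-C18 column (2.1 × 50 mm, 1.8 μm) run at 100 μL/min in water and acetonitrile containing 0.1% formic acid each. Pure standards were analyzed in mixtures of ~100 molecules by HPLC–quadrupole time-of-flight mass spectrometry in positive and negative ionization mode. Retention time was assigned from computationally picked, manually inspected adduct peaks.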
Compound `Cc1ccc2oc(-c3noc(C(=O)NCc4cccs4)n3)c(C)c2c1` returned an RP-LC retention time of 1150 s.
Turning to `CCC(C)NC(=O)Cn1c(=O)c(S(=O)(=O)c2ccccc2)cc2cc(C)ccc21` (centres undefined), the RP-LC retention time was 879 s.
For `CCc1ccccc1NC(=O)Cn1ncc2c(N3CCN(c4ccccn4)CC3)ncnc21` the value was 608 s.
In the case of `O=C(Nc1ncc(-c2ccccc2)s1)c1ccccc1Br`, the RP-LC retention time was found to be 936 s.
In turn, `COc1ccc(OC)c(S(=O)(=O)N2CCCC(C(=O)NCc3ccncc3)C2)c1` (centres undefined) returned an RP-LC retention time of 604 s.
For `CCCN(CCC)CCCNC(=O)C1=C(C)C(=O)OC12CCN(Cc1ccccc1)CC2`, the RP-LC retention time is 558 s.
On to `CCN1C(=O)c2cccnc2Sc2cc(NC(=O)c3cc(C)ccc3C)ccc21`, for which the RP-LC retention time was determined as 898 s.
`Cc1nnc([C@@H]2CC(F)(F)CN2C(=O)COc2ccc(Cl)cc2)o1`: the RP-LC retention time was determined as 779 s.
In the case of `Cc1cccc(NC(=O)N2CCC3(C2)C(=O)Nc2ccccc23)c1` (centres undefined) it was 727 s; in that of `Fc1cccc(-c2nnc(Cc3nc(-c4ccc(Cl)cc4)no3)o2)c1`, 1110 s.
`CCc1noc(-c2ccc(-n3ncc(C(=O)N4CCOCC4)c3C)nc2)n1` displayed an RP-LC retention time of 752 s.
Compound `Cc1ccc(N2C=C(C(=O)N3CCCC3)S(=O)(=O)c3ccccc32)cc1` registered an RP-LC retention time of 802 s.
For `O=C(NCCCN1CCN(C2CCCCC2)CC1)C1CCCN(C(=O)c2cccc(Cl)c2)C1` (centres undefined) the value was 584 s.
The compound `O=C(NCCC1=CCCCC1)C1CCN(C(=O)c2ncn3c2COC(c2ccc(Cl)cc2)C3)CC1` (centres undefined) yielded an RP-LC retention time of 911 s.
`Cc1cc(N2CCN(S(=O)(=O)c3ccc(F)cc3F)CC2)nc(NC2CCCCC2)n1` came in with an RP-LC retention time of 805 s.
Compound `Cn1c(=O)c2cc(C(=O)NCc3cccnc3)nn2c2ccccc21` yielded an RP-LC retention time of 599 s.
The compound `CC(=O)NCC(=O)N1CCCn2cc(-c3ccc4c(c3)OCO4)nc21` returned an RP-LC retention time of 487 s.
In the case of `O=C(NC1CCS(=O)(=O)C1)C1Cn2cccc2C(=O)N1Cc1ccccc1` (centres undefined) it was 652 s; in that of `CCOC(=O)C(C)Sc1nnc(CNC(=O)c2ccc(OC)cc2)n1C1CCCCC1` (centres undefined), 805 s; in that of `CC(C)N1CCc2c(sc(NC(=O)c3ccc([N+](=O)[O-])s3)c2C(N)=O)C1`, 573 s.
For `CC(C)N1CCCn2cc(S(=O)(=O)Nc3ccc(Oc4ccccc4)cc3)cc2C1=O` the value was 909 s.
Compound `COC(=O)c1ccc(C2NC(=O)c3[nH]nc(-c4ccc(OC)cc4)c32)cc1` (centres undefined) came in with an RP-LC retention time of 702 s.
`Cn1cccc(C(=O)NCCCn2cccc2)c1=O` displayed an RP-LC retention time of 644 s.
Take `Cc1ccc(-n2ncc3c(=O)n(Cc4nc(-c5ccccc5)no4)cnc32)cc1Cl`: the RP-LC retention time is 1190 s.
With `CC1=C(c2ccc(Cl)cc2)S(=O)(=O)N=C1N1CCCN(C(=O)CC(C)(C)C)CC1`, the RP-LC retention time was found to be 944 s.
Consider `CCCCn1cc(S(=O)(=O)N2CCN(c3cccc(C)c3)CC2)c2cccnc21`, for which the RP-LC retention time was 1220 s.
For `CCOC(=O)c1ccc(NC(=O)COc2cc(C)nc(N3CCN(c4ccccc4)CC3)n2)cc1` the value was 864 s; for `O=C(Nc1ccc(Cl)cc1)c1cn(CC(O)c2ccc3c(c2)OCO3)nn1` (centres undefined), 841 s.
As to `Cc1c(C)c2cc3c(=O)ccoc3c(C)c2oc1=O`, the RP-LC retention time came to 780 s.
In the case of `CN(C)C[C@@H]1CN(c2ncccn2)C[C@H]1NC(=O)c1ccc2ncccc2c1` it was 557 s; in that of `O=C(Nc1cccc(Br)c1)N1CCc2nc(-c3ccccc3)ncc2C1`, 1030 s.
As to `Nc1ncnc2c1c(-c1cnc3[nH]ccc3c1)nn2C1CCCC1`, the RP-LC retention time worked out at 709 s.
`O=C(Nc1cccc(F)c1)c1c(O)c2cccnc2n(-c2ccccc2)c1=O` gave an RP-LC retention time of 1230 s.
For `COCCn1nnnc1C1CC2(CCOCC2)C(=O)N1CCc1ccc(OC)c(OC)c1` (centres undefined) the value was 685 s; for `CCc1noc(-c2nnn3c2COC(c2ccc(OC)cc2)C3)n1` (centres undefined), 941 s.
`CC(=O)N1CCc2cc(N3CC(C(=O)NCc4cc(F)cc(F)c4)CC3=O)ccc21` (centres undefined) returned an RP-LC retention time of 690 s.
In the case of `O=C(Cn1c(=O)n(-c2ccc(F)cc2)c2ncccc21)N1CCCCC1` it was 754 s.
`CC1(C(=O)N2CCN(Cc3ccc4c(c3)OCO4)CC2)CCCCC(=O)N1` (centres undefined) returned an RP-LC retention time of 576 s.
In the case of `Cc1oc(-c2[nH]ncc2C(=O)N2CCCC2)cc1S(=O)(=O)Nc1ccc(F)c(F)c1` it was 734 s; in that of `Cc1nc(CNC(=O)C2CCN(C(=O)Nc3cccc(Br)c3)CC2)cs1`, 707 s.
In the case of `O=C(CSc1nc(N2CCCCC2)nc2ccccc12)Nc1ccc2c(c1)OCCO2` it was 690 s; in that of `COc1cc(NC(=O)N2CCN(c3cc(C)nc(N4CCCCC4)n3)CC2)cc(OC)c1OC`, 669 s.
`CC(C)CNC(=O)N1CCc2c(c(-c3nc(-c4ccc(F)cc4)no3)nn2C)C1`: the RP-LC retention time is 940 s.
In turn, `CCOC(=O)N1CCC2(CC1)N=C(c1ccc(OCC)cc1)CC(c1ccccc1O)N2` (centres undefined) displayed an RP-LC retention time of 772 s.
`COCCc1nnc(NC(=O)c2ccc3c(c2)CCCC3)o1` displayed an RP-LC retention time of 702 s.
In turn, `Cc1ccc(C(=O)CC2(O)C(=O)Nc3c(C)cccc32)cc1` (centres undefined) gave an RP-LC retention time of 748 s.
As for `CCN(C(=O)Cn1c(C(C)NC(=O)c2ccco2)nc2ccccc21)c1ccccc1` (centres undefined), the RP-LC retention time came out at 704 s.
The compound `COc1ccccc1N1CCN(c2cc(SCC(=O)Nc3cc(F)ccc3F)ncn2)CC1` gave an RP-LC retention time of 1130 s.
`O=C(NC1CCCCCC1)c1ccc(-c2ccsc2)nc1` gave an RP-LC retention time of 943 s.
`COC(=O)c1c(C)[nH]c(C(=O)N2CCCC(C(=O)N(C)Cc3ccco3)C2)c1C` (centres undefined) had an RP-LC retention time of 726 s.
Regarding `Cc1csc(-c2ccc(CNC(=O)c3cccnc3)cc2)n1`, the RP-LC retention time came out at 672 s.
The compound `Cc1ccccc1Nc1c(-c2ccc(N3CCOCC3)cc2)nc2ccc(Br)cn12` displayed an RP-LC retention time of 795 s.
In the case of `CCCCNC(=O)C1CCc2nc(N3CCC(C)CC3)ncc2C1` (centres undefined) it was 758 s; in that of `CC1=C(c2ccc(F)cc2)S(=O)(=O)N=C1N1CCCN(C(=O)C(C)C)CC1`, 751 s.
On to `C=CCNCc1ccc(-c2cccc(C(F)(F)F)c2)o1`, for which the RP-LC retention time was 714 s.
For `COc1ccccc1-c1nc(Cn2nnc(-c3nc(-c4ccccn4)no3)c2C)c(C)o1` the value was 827 s; for `COC1OC2COC(c3ccccc3)OC2C(=O)C1NC(=O)c1ccccc1` (centres undefined), 1050 s.
`COc1cc(NC(=O)NCCc2cn(C)c3ncccc23)cc(OC)c1` yielded an RP-LC retention time of 657 s.
`CCn1cnc(S(=O)(=O)N2CCC(C(=O)N3CCN(c4cc(C)ccc4C)CC3)CC2)c1` had an RP-LC retention time of 878 s.
Turning to `CCOC(=O)CNC(=O)N1CCN(c2nc3ccccc3n2Cc2ccccc2)CC1`, the RP-LC retention time is 656 s.
On to `COc1cc(CCC(=O)Nc2c(C(=O)N3CCN(c4ccccn4)CC3)oc3ccccc23)on1`, for which the RP-LC retention time came out at 642 s.
With `COc1ccc(CNC(=O)c2c(C)sc3ccn(C)c(=O)c23)c(OC)c1`, the RP-LC retention time turned out to be 743 s.
In the case of `Cc1cc(C)cc(Nc2nc3ccncc3n(Cc3ccccc3)c2=O)c1` it was 817 s.
For `Fc1ccc(OCc2nnc3sc(Cc4ccc5c(c4)OCCO5)nn23)cc1`, the RP-LC retention time worked out at 913 s.
In the case of `C=CCN1C(=O)COc2ccc(-c3csc(NC(C)=O)n3)cc21` it was 762 s; in that of `O=C(Nc1ccc(Br)cc1F)C1CCN(C(=O)c2cc(-c3cccnc3)n[nH]2)CC1`, 676 s.
In the case of `COc1ccc(OC)c(NC(=O)N2CCN(c3cc(-c4ccccc4)ncn3)CC2)c1` it was 667 s; in that of `Cc1ccc(NC(=O)N2C[C@@H](F)C[C@H]2C(=O)N2CCc3ccccc3C2)cc1C`, 817 s; in that of `Cc1ccc(C)c(NC(=O)Cn2nc3c4sc(N(C)C)nc4ncn3c2=O)c1`, 694 s.
With `CN(C)CCn1nnc2cc(-c3noc(-c4ccccc4Br)n3)ccc21`, the RP-LC retention time came out at 681 s.
Regarding `O=C(Nc1ccc(F)cc1)N1CCC(N2CC(F)(F)C[C@H]2COCC2CC2)CC1`, the RP-LC retention time was determined as 699 s.
In turn, `CCCN(CC1CCOC1)C(=O)Nc1ccc(Cl)cc1C` (centres undefined) registered an RP-LC retention time of 639 s.
As for `Cc1nnc2ccc(-c3noc(-c4ccccc4Br)n3)cn12`, the RP-LC retention time came to 908 s.
Regarding `COc1cc(Cl)ccc1-c1nc(-c2ccc3c(c2)ncn3CCC(=O)N2CCCC2)no1`, the RP-LC retention time stood at 786 s.
Compound `Cc1nn(C)cc1C(=O)NC1CCN(c2ccc(=O)n(C)n2)C1` (centres undefined) displayed an RP-LC retention time of 562 s.
In the case of `Cc1c(C(=O)NC2CC2)cnn1-c1ccc(SCc2ccccc2)nn1` it was 866 s; in that of `COC(=O)c1cccc(N2C=C(C(=O)N3CCCC3)S(=O)(=O)c3ccc(Cl)cc32)c1`, 831 s; in that of `CCc1ccc(CNC(=O)C2Cc3cc(S(=O)(=O)N4CCCCC4)ccc3N2C(C)=O)cc1` (centres undefined), 983 s.
`CCOc1ccc(C(=O)N2CCc3cc(-c4csc(C)n4)ccc32)cc1` showed an RP-LC retention time of 1060 s.
